From PubChem BioAssay AID248 (DTP/NCI, 2004)
“And” between values parts separate entries of the source, which are not always exact repeats. Identical values can stand only once. Inconclusive results and toxic doses are left out. Cut-off read from the data, not from the text of the source: active = T/C of 150% or more; inactive = T/C below 125%.

System: L1210 leukemia ip in BDF1 mice, survival T/C
Assay: NCI In Vivo Anticancer Drug Screen. Data for tumor model L1210 Leukemia (intraperitoneal) in B6D2F1 (BDF1) mice
Conditions: endpoint: mean survival time, higher = longer survival
How it was run: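 Transplantable tumor model; survival measured in treated vs vehicle control mice. Value = treated/control.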

[1] = dose: 25.0 mg/kg/injection, schedule: Q01DX009 (ip), vehicle: saline with Tween-80
[2] = dose: 50.0 mg/kg/injection, schedule: Q01DX009 (ip), vehicle: saline with Tween-80
[3] = dose: 100.0 mg/kg/injection, schedule: Q01DX001 (ip), vehicle: saline with Tween-80
[4] = dose: 100.0 mg/kg/injection, schedule: Q01DX009 (ip), vehicle: saline with Tween-80
[5] = dose: 100.0 mg/kg/injection, schedule: Q04DX002 (ip), vehicle: Klucel (hydroxypropylcellulose) (HPC)
[6] = dose: 200.0 mg/kg/injection, schedule: Q01DX001 (ip), vehicle: saline with Tween-80
[7] = dose: 200.0 mg/kg/injection, schedule: Q04DX002 (ip), vehicle: Klucel (hydroxypropylcellulose) (HPC)
[8] = dose: 100.0 mg/kg/injection, schedule: Q01DX001 (ip), vehicle: carboxymethylcellulose (CMC)
[9] = dose: 200.0 mg/kg/injection, schedule: Q01DX001 (ip), vehicle: carboxymethylcellulose (CMC)
[10] = dose: 400.0 mg/kg/injection, schedule: Q01DX001 (ip), vehicle: carboxymethylcellulose (CMC)
[11] = dose: 75.0 mg/kg/injection, schedule: Q01DX001 (ip), vehicle: carboxymethylcellulose (CMC)
[12] = dose: 150.0 mg/kg/injection, schedule: Q01DX001 (ip), vehicle: carboxymethylcellulose (CMC)
[13] = dose: 100.0 mg/kg/injection, schedule: Q01DX009 (ip), vehicle: saline
[14] = dose: 200.0 mg/kg/injection, schedule: Q01DX009 (ip), vehicle: saline
[15] = dose: 50.0 mg/kg/injection, schedule: Q01DX001 (ip), vehicle: saline
[16] = dose: 100.0 mg/kg/injection, schedule: Q01DX001 (ip), vehicle: saline
[17] = dose: 200.0 mg/kg/injection, schedule: Q01DX001 (ip), vehicle: saline
[18] = dose: 400.0 mg/kg/injection, schedule: Q01DX001 (ip), vehicle: saline
[19] = dose: 100.0 mg/kg/injection, schedule: Q04DX003 (ip), vehicle: saline with Tween-80
[20] = dose: 200.0 mg/kg/injection, schedule: Q04DX003 (ip), vehicle: saline with Tween-80
[21] = dose: 100.0 mg/kg/injection, schedule: Q04DX002 (ip), vehicle: saline
[22] = dose: 200.0 mg/kg/injection, schedule: Q04DX002 (ip), vehicle: saline
[23] = dose: 400.0 mg/kg/injection, schedule: Q04DX002 (ip), vehicle: saline

Measured: T/C

CC(C)c1nc(C=O)c(C=O)n1Cc1ccccc1
inactive: [1] 100 % of control and 90 % of control | dose: 25.0 mg/kg/injection, schedule: Q04DX002 (ip), vehicle: saline with Tween-80 101 % of control and 103 % of control | dose: 25.0 mg/kg/injection, schedule: Q04DX003 (ip), vehicle: carboxymethylcellulose (CMC) 92 % of control | dose: 50.0 mg/kg/injection, schedule: Q01DX001 (ip), vehicle: saline with Tween-80 89 % of control | [2] 102 % of control and 103 % of control | dose: 50.0 mg/kg/injection, schedule: Q04DX002 (ip), vehicle: saline with Tween-80 95 % of control and 101 % of control | dose: 50.0 mg/kg/injection, schedule: Q04DX003 (ip), vehicle: carboxymethylcellulose (CMC) 95 % of control | [3] 96 % of control | [4] 94 % of control and 105 % of control | [5] 105 % of control | dose: 100.0 mg/kg/injection, schedule: Q04DX002 (ip), vehicle: other 98 % of control and 89 % of control | dose: 100.0 mg/kg/injection, schedule: Q04DX002 (ip), vehicle: saline with Tween-80 95 % of control and 86 % of control | dose: 100.0 mg/kg/injection, schedule: Q04DX003 (ip), vehicle: carboxymethylcellulose (CMC) 100 % of control | [6] 94 % of control | [7] 107 % of control | dose: 200.0 mg/kg/injection, schedule: Q04DX002 (ip), vehicle: other 98 % of control

CCCCCCCOc1ccc(C2=C(c3ccccc3)C(=O)C(c3ccccc3)=C2c2ccccc2)cc1
inactive: [8] 100 % of control | [9] 100 % of control | [10] 94 % of control

CCCCNC(=O)Nc1ncn[nH]1
inactive: [11] 103 % of control | [12] 104 % of control | dose: 300.0 mg/kg/injection, schedule: Q01DX001 (ip), vehicle: carboxymethylcellulose (CMC) 97 % of control

O=c1cnn(C2OC(CO)C(O)C2O)c(=S)[nH]1 (stereo unspecified)
inactive: dose: 100.0 mg/kg/injection, schedule: Q01DX005 (ip), vehicle: saline 113 % of control | [13] 124 % of control | dose: 200.0 mg/kg/injection, schedule: Q01DX005 (ip), vehicle: saline 108 % of control | [14] 123 % of control | dose: 400.0 mg/kg/injection, schedule: Q01DX009 (ip), vehicle: saline 117 % of control

O=c1ccn(C2SC(CO)C(O)C2O)c(=O)[nH]1 (stereo unspecified)
inactive: [15] 108 % of control | [16] 100 % of control | [17] 88 % of control | [18] 108 % of control

CC1(C)N=C(N)N=C(N)N1c1cccc(CCCCc2cccc(N)c2)c1
inactive: dose: 5.0 mg/kg/injection, schedule: Q01DX001 (ip), vehicle: saline 98 % of control | dose: 10.0 mg/kg/injection, schedule: Q01DX001 (ip), vehicle: saline 102 % of control | dose: 20.0 mg/kg/injection, schedule: Q01DX001 (ip), vehicle: saline 113 % of control

CC1(N)COP(=O)(NCCCN2CCOCC2)OC1 (stereo unspecified)
inactive: [16] 96 % of control | [17] 96 % of control | [18] 96 % of control

O=C(C#CC(=O)c1ccccc1)c1ccccc1
inactive: dose: 20.0 mg/kg/injection, schedule: Q04DX003 (ip), vehicle: gum acacia 95 % of control | dose: 40.0 mg/kg/injection, schedule: Q04DX003 (ip), vehicle: gum acacia 101 % of control | dose: 80.0 mg/kg/injection, schedule: Q04DX003 (ip), vehicle: gum acacia 100 % of control

CCCCC/C=C(\CCCCCC)c1ccccc1
inactive: [3] 98 % of control | [6] 95 % of control | dose: 400.0 mg/kg/injection, schedule: Q01DX001 (ip), vehicle: saline with Tween-80 90 % of control

CC#CCOCC1CN(c2ccccc2)C(=O)O1 (stereo unspecified)
inactive: [4] 117 % of control | [19] 95 % of control | dose: 200.0 mg/kg/injection, schedule: Q01DX009 (ip), vehicle: saline with Tween-80 103 % of control | [20] 103 % of control | dose: 400.0 mg/kg/injection, schedule: Q01DX009 (ip), vehicle: saline with Tween-80 100 % of control | dose: 400.0 mg/kg/injection, schedule: Q04DX003 (ip), vehicle: saline with Tween-80 101 % of control

COC(=O)C1=CC=CC1
inactive: dose: 100.0 mg/kg/injection, schedule: Q01DX005 (ip), vehicle: Klucel (hydroxypropylcellulose) (HPC) 103 % of control | dose: 100.0 mg/kg/injection, schedule: Q01DX009 (ip), vehicle: Klucel (hydroxypropylcellulose) (HPC) 104 % of control | dose: 200.0 mg/kg/injection, schedule: Q01DX005 (ip), vehicle: Klucel (hydroxypropylcellulose) (HPC) 98 % of control | dose: 200.0 mg/kg/injection, schedule: Q01DX009 (ip), vehicle: Klucel (hydroxypropylcellulose) (HPC) 104 % of control | dose: 400.0 mg/kg/injection, schedule: Q01DX005 (ip), vehicle: Klucel (hydroxypropylcellulose) (HPC) 95 % of control | dose: 400.0 mg/kg/injection, schedule: Q01DX009 (ip), vehicle: Klucel (hydroxypropylcellulose) (HPC) 93 % of control

C=C1CC(O)C2C(C)C(=O)OC2C2C1CC1OC12C (stereo unspecified)
inactive: [21] 92 % of control | [22] 95 % of control | [23] 92 % of control

OCCN(CCO)c1cccc(C(F)(F)F)c1
inactive: [15] 96 % of control | [16] 100 % of control | [17] 106 % of control | [18] 96 % of control

O=C(COc1ccc([N+](=O)[O-])cc1)OCCN1CCOCC1
inactive: [8] 92 % of control | [9] 111 % of control | [10] 101 % of control

CCCCCCCCCCCCOc1ccc(C=Nc2ccc(C)cc2)cc1
inactive: [5] 109 % of control | [7] 109 % of control | dose: 400.0 mg/kg/injection, schedule: Q04DX002 (ip), vehicle: Klucel (hydroxypropylcellulose) (HPC) 95 % of control

CCOC(=O)CCN(C(=O)OCC)C(COCc1ccccc1)C(=O)OCC (stereo unspecified)
inactive: [16] 104 % of control | [17] 104 % of control | [18] 98 % of control

S=c1[nH]ccs1
inactive: dose: 25.0 mg/kg/injection, schedule: Q01DX001 (ip), vehicle: saline 100 % of control | [15] 98 % of control | [16] 98 % of control and 99 % of control

Cc1ccc(S(=O)(=O)Oc2ccccc2C)cc1
inactive: dose: 100.0 mg/kg/injection, schedule: Q04DX003 (ip), vehicle: Klucel (hydroxypropylcellulose) (HPC) 97 % of control | dose: 200.0 mg/kg/injection, schedule: Q04DX003 (ip), vehicle: Klucel (hydroxypropylcellulose) (HPC) 103 % of control | dose: 400.0 mg/kg/injection, schedule: Q04DX003 (ip), vehicle: Klucel (hydroxypropylcellulose) (HPC) 103 % of control

CCN(CC)CCC(O)c1ccc2c(c1)[nH]c1ccccc12 (stereo unspecified)
inactive: [11] 97 % of control | [12] 103 % of control

O=C(O)C1CCC1C(=O)O (stereo unspecified)
inactive: [21] 90 % of control | [22] 90 % of control | [23] 87 % of control

O=C(N=P(c1ccccc1)(c1ccccc1)c1ccccc1)c1ccccc1
inactive: [16] 94 % of control | [17] 100 % of control | [18] 96 % of control

CN(C)CCCNC(CC#N)CCC#N (stereo unspecified)
inactive: dose: 50.0 mg/kg/injection, schedule: Q01DX009 (ip), vehicle: saline 91 % of control | [13] 92 % of control | [14] 92 % of control

Cc1ccc2cccc([N+](=O)[O-])c2n1
inactive: dose: 12.5 mg/kg/injection, schedule: Q01DX009 (ip), vehicle: saline with Tween-80 93 % of control | [1] 93 % of control | dose: 25.0 mg/kg/injection, schedule: Q04DX003 (ip), vehicle: saline with Tween-80 101 % of control | [2] 103 % of control | dose: 50.0 mg/kg/injection, schedule: Q04DX003 (ip), vehicle: saline with Tween-80 95 % of control | [19] 105 % of control and 106 % of control | [20] 106 % of control

O=C1c2cc(Br)ccc2-c2c(F)cc(Br)cc21
inactive: dose: 50.0 mg/kg/injection, schedule: Q01DX001 (ip), vehicle: carboxymethylcellulose (CMC) 105 % of control | [8] 100 % of control | [9] 100 % of control | [10] 94 % of control

CCOc1ccccc1/C=C(\C#N)c1cccc(Cl)c1
inactive: dose: 100.0 mg/kg/injection, schedule: Q01DX009 (ip), vehicle: other 87 % of control | dose: 200.0 mg/kg/injection, schedule: Q01DX009 (ip), vehicle: other 88 % of control
